# Literature values, collected in patent US20240226372A1, “HYDROPHILIC POLY(THIOKETAL) URETHANE SCAFFOLDS AND METHODS OF USE THEREOF” (Vanderbilt University, priority 2021, published 2024).
# Tested on: osteoblasts
# Parameters: dose or concentration left out as unconfirmed
# Conditions: 21 antibiotics
smiles,measurement,value
CN[C@H](CC(C)C)C(=O)N[C@H]1C(=O)N[C@@H](CC(N)=O)C(=O)N[C@H]2C(=O)N[C@H]3C(=O)N[C@H](C(=O)N[C@H](C(=O)O)c4cc(O)cc(O)c4-c4cc3ccc4O)[C@H](O)c3ccc(c(Cl)c3)Oc3cc2cc(c3O[C@@H]2O[C@H](CO)[C@@H](O)[C@H](O)[C@H]2O[C@H]2C[C@](C)(N)[C@H](O)[C@H](C)O2)Oc2ccc(cc2Cl)[C@H]1O [vancomycin],effects on osteoblast function,least detrimental effects
